The text below walks through data of US20210024507A1, “Compounds” (Step Pharma S.A.S., priority 2018, published 2021).

In general, IC50 refers to the concentration that gives 50% inhibition.

The target in assay [1] is T1, human CTPS1 (Homo sapiens, UniProt P17812).
T1 construct: purchased Proteros biostructures GmbH
T1 sequence (P17812 1-591): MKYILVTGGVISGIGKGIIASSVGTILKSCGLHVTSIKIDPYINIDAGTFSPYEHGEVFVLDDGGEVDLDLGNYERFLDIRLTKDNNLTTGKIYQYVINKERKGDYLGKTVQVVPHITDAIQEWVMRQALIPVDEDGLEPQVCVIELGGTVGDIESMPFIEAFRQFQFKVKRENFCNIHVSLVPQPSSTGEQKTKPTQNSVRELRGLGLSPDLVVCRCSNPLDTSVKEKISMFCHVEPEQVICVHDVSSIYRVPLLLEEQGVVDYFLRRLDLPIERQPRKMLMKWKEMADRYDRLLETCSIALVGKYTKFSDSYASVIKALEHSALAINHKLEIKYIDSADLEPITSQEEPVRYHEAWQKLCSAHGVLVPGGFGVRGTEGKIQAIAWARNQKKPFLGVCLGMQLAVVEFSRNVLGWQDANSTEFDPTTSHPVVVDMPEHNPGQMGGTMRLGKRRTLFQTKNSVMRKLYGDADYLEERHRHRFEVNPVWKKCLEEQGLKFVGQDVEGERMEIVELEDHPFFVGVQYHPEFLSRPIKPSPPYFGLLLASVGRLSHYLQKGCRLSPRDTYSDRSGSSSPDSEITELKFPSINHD
The experiment in a line: Human CTPS1 enzyme inhibition (ADP-Glo Max assay). Format: biochemical. To be noted: human full length CTPS1, 25° C., read-out: CTPS1 (Human CTPS1 Enzyme Inhibition, IC50 grouped by potency range). On the procedure: The enzyme inhibitory activities of compounds invented against the target of interest were determined using the ADP-GIoTM Max assay (Promega, UK). Assays for human CTPS1 were performed in lx assay buffer containing 50mM Tris, 10mM MgCl2, 0.01% Tween-20, pH to 8.0 accordingly. Finally, immediately before use, L-cysteine was added to the lx assay buffer to a final concentration of 2mM. All reagents are from Sigma-Aldrich unless specified otherwise. Human full length active C-terminal FLAG-Hiss-tag CTPS1 (UniProtKB - P17812, CTPS[1-591]-[…]) was obtained from Proteros biostructures GmbH.
Assay Procedure 3× human CTPS1 protein was prepared in lx assay buffer to the final working protein concentration required for the reaction. A 2uL volume per well of 3x human CTPS1 protein was mixed with 2uL per well of 3× test compound (compound prepared in lx assay buffer to an appropriate final 3× compound concentration respective to the concentration response curve designed for the compounds under test) for 10 minutes at 25° C. The enzymatic reaction was then initiated by addition of a 2uL per well volume of a pre-mixed substrate mix (UltraPure ATP from ADP-GIo™ Max kit (0.31mM), GTP (0.034mM), UTP (0.48mM) and L-glutamine (0.186mM)) and the mixture was incubated for an appropriate amount of time within the determined linear phase of the reaction at 25° C. under sealed plate conditions with constant agitation at 500 revolutions per minute (rpm). ADP-GIo™ Max reagent was added for 60 minutes ([…] per well) and subsequently ADP-GIo™ Max development reagent was added for 60 minutes (12uL per well) prior to signal detection in a microplate reader (EnVision® Multilabel Reader, Perkin Elmer). Following each reagent addition over the course of the assay, assay plates were pulse centrifuged for 30 seconds at 500rpm.
In all cases, the enzyme converts ATP to ADP and the ADP-GIo™ Max reagent subsequently depletes any remaining endogenous ATP in the reaction system. The ADP-GIo™ Max detection reagent converts the ADP that has been enzymatically produced back into ATP and using ATP as a substrate together with luciferin for the enzyme luciferase, light is generated which produces a detectable luminescence. […] The percentage inhibition produced by each concentration of compound was calculated using the equation shown below: […]
(§1) Percentage inhibition was then plotted against compound concentration, and the 50% inhibitory concentration (IC50) was determined from the resultant concentration-response curve.
Background: ADP-Glo first removes unused ATP, then detects ADP through luciferase.

Assay [2] has as its system human CTPS1. The experiment in a line: RapidFire/MS-based enzyme selectivity assay, human CTPS1. Format: biochemical. As to conditions: calculated from the CTPS1 and CTPS2 IC50 values. On the procedure:
The enzyme inhibitory activities against each target isoform of interest may be determined for the compounds of the invention using an optimised RapidFire high-throughput mass spectrometry (RF/MS) assay format. RF/MS assays for both human CTPS1 and CTPS2 may be performed in assay buffer consisting of 50mM HEPES (Merck), 20mM MgCl2, 5mM KCI, 1mM DTT, 0.01% Tween-20, pH to 8.0 accordingly. Human full-length active C-terminal FLAG-His-tag CTPS1 (UniProtKB - P17812, CTPS[1-591]-[…]) may be obtained from Proteros biostructures GmbH. Human full length active C-terminal FLAG-His-Avi tagged CTPS2 (UniProtKB-Q9NRF8, CTPS2 [1-586]- […]) may be obtained from Harker Bio.
Human CTPS (1 or 2) protein may be prepared in lx assay buffer to the final working protein concentration required for the reaction. A 2uL volume per well of 2× CTPS (1 or 2) protein may be mixed with 40nL of compound using acoustic (ECHO) delivery and incubated for 10 minutes at 25° C. Each isoform enzymatic reaction may be subsequently initiated by addition of 2uL per well of a 2× substrate mix in assay buffer. For hCTPS1: ATP (0.3mM), UTP (0.2mM), GTP (0.07mM) and L-glutamine (0.1mM). For hCTPS2: ATP (0.1mM), UTP (0.04mM), GTP (0.03mM) and L-glutamine (0.1mM). Each mixture may be incubated for an appropriate amount of time per isoform within the determined linear phase of the reaction at 25° C. A 60uL volume of stop solution (1% formic acid with 0.5uM ^13C9-^15N3-CTP in H2O) may be added and the plate immediately heat-sealed and centrifuged for 10 minutes at 4,000rpm. Following centrifugation, plates may be loaded onto the Agilent RapidFire microfluidic solid phase extraction system coupled to an AP14000 triple quadrupole mass spectrometer (RF/MS) for analysis.
In all cases, the enzyme converts UTP to CTP. Highly specific and sensitive multiple reaction monitoring (MRM) MS methods may be optimised for the detection of the enzymatic reaction product, CTP, and the stable isotope labelled product standard ^13C9-^15N3-CTP. Readout for data analysis may be calculated as the ratio between the peak area of the product CTP and the internal standard ^13C9-^15N3-CTP. For data reporting, the following equation may be used:
[formula] (R=ratio/readout, P=product signal area, IS=internal standard signal area)
For each screening plate, the means of the negative (DMSO) and positive control values were used for the calculation of the respective assay window (S/B) and Z′ values. The median of the respective control values was used for calculation of percent inhibition according to the following equation:
[formula] (I=Inhibition, Rneg=median of negative control readout values, Rpos=median of positive control readout values, Rsample=sample readout value)
as §1
Fold selectivity between CTPS1 and CTPS2 was subsequently calculated according to the following equation: […]

For `CCOc1cncc(-c2ccc(NC(=O)C(F)(CC)c3ccnc(NS(=O)(=O)C4CC4)n3)nc2)n1` (racemic) [P112, 2-(2-(Cyclopropanesulfonamido)pyrimidin-4-yl)-N-(5-(6-ethoxypyrazin-2-yl)pyridin-2-yl)-2-fluorobutanamide], the IC50 at human CTPS1 [1] is ≤ 100 nM. Further, the “Selectivity (fold selectivity between CTPS1 and CTPS2)” value in the assay on human CTPS1 [2] is on record as “++ (>30-60 fold (++))”. Take `CCOc1cncc(-c2ccc(NC(=O)C(CC)c3cccc(NS(=O)(=O)C4CC4)n3)nc2)n1` (stereo not shown) [P188, 2-(6-(cyclopropanesulfonamido)pyridin-2-yl)-N-(5-(6-ethoxypyrazin-2-yl)pyridin-2-yl)butanamide]: the half-maximal inhibitory concentration (IC50) at human CTPS1 [1] was ≤ 100 nM. In addition, the “Selectivity (fold selectivity between CTPS1 and CTPS2)” value in the assay with human CTPS1 [2] is “++ (>30-60 fold (++))”.

As for `CCOc1cncc(-c2ccc(NC(=O)C(CC)c3ccnc(NS(=O)(=O)C4CC4)n3)c(F)c2)n1` (stereo not shown) [P96, 2-(2-(cyclopropanesulfonamido)pyrimidin-4-yl)-N-(4-(6-ethoxypyrazin-2-yl)-2-fluorophenyl)butanamide], the IC50 at human CTPS1 [1] was ≤ 100 nM. Further, in the assay on human CTPS1 [2], the “Selectivity (fold selectivity between CTPS1 and CTPS2)” value is on record as “+ (2-30 fold (+))”. The corresponding values for `CCOc1cncc(-c2ccc(C(=O)NC(CC)c3ccnc(NS(=O)(=O)C4CC4)n3)c(F)c2)n1` (stereo not shown) [P216, N-(1-(2-(cyclopropanesulfonamido)pyrimidin-4-yl)propyl)-4-(6-ethoxypyrazin-2-yl)-2-fluorobenzamide] are ≤ 100 nM and “+++ (>60 fold (+++))”. On to `CCOc1cncc(-c2ccc(NC(=O)C(F)(CC)c3ccnc(NS(=O)(=O)C4CC4)n3)nc2)n1` (single isomer, unassigned) [P114, 2-(2-(cyclopropanesulfonamido)pyrimidin-4-yl)-N-(5-(6-ethoxypyrazin-2-yl)pyridin-2-yl)-2-fluorobutanamide], for which, at human CTPS1 [1], the IC50 was ≤ 100 nM. Moreover, the “Selectivity (fold selectivity between CTPS1 and CTPS2)” value in the assay on human CTPS1 [2] was “+++ (>60 fold (+++))”. The corresponding values for `CCOc1cncc(-c2ccc(NC(=O)C(CC)c3ccnc(NS(=O)(=O)C4CC4)n3)cc2)n1` (stereo not shown) [P105, 2-(2-(cyclopropanesulfonamido)pyrimidin-4-yl)-N-(4-(6-ethoxypyrazin-2-yl)phenyl)butanamide] are ≤ 100 nM and “++ (>30-60 fold (++))”. The like results for `CCC(C(=O)Nc1ccc(-c2cncc(C(F)(F)F)n2)cc1)c1ccnc(NS(=O)(=O)C2CC2)n1` (stereo not shown) [P103, 2-(2-(cyclopropanesulfonamido)pyrimidin-4-yl)-N-(4-(6-(trifluoromethyl)pyrazin-2-yl)phenyl)butanamide] were, in that order, 100 to 1000 nM and “+ (2-30 fold (+))”. The like results for `CCOc1cncc(-c2ccc(NC(=O)C(F)(CC)c3ccnc(NS(=O)(=O)C4CC4)n3)nc2)n1` (single isomer, unassigned) [P113, 2-(2-(cyclopropanesulfonamido)pyrimidin-4-yl)-N-(5-(6-ethoxypyrazin-2-yl)pyridin-2-yl)-2-fluorobutanamide] were, in that order, ≤ 100 nM and “+ (2-30 fold (+))”.

As for `CCOc1cncc(-c2ccc(NC(=O)C(F)(CC)c3cncc(NS(=O)(=O)C4CC4)n3)nc2)n1` (single isomer, unassigned) [P207, 2-(6-(cyclopropanesulfonamido)pyrazin-2-yl)-N-(5-(6-ethoxypyrazin-2-yl)pyridin-2-yl)-2-fluorobutanamide], the IC50 at human CTPS1 [1] was ≤ 100 nM. In addition, in the assay on human CTPS1 [2], the “Selectivity (fold selectivity between CTPS1 and CTPS2)” value is listed as “+ (2-30 fold (+))”.

Regarding `CCOc1cncc(-c2ccc(NC(=O)C(CC)c3cncc(NS(=O)(=O)C4CC4)n3)nc2)n1` (stereo not shown) [P201, 2-(6-(cyclopropanesulfonamido)pyrazin-2-yl)-N-(5-(6-ethoxypyrazin-2-yl)pyridin-2-yl)butanamide], the IC50 at human CTPS1 [1] was ≤ 100 nM. For the same molecule, the “Selectivity (fold selectivity between CTPS1 and CTPS2)” value with human CTPS1 [2] is given as “+++ (>60 fold (+++))”. `CCOc1cncc(-c2ccc(NC(=O)Cc3ccnc(NS(=O)(=O)C4CC4)n3)cc2)n1` [P18, 2-(2-(cyclopropanesulfonamido)pyrimidin-4-yl)-N-(4-(6-ethoxypyrazin-2-yl)phenyl)acetamide]: the “Selectivity (fold selectivity between CTPS1 and CTPS2)” value with human CTPS1 [2] was “++ (>30-60 fold (++))”. As for `CCOc1cncc(-c2ccc(NC(=O)C3(c4ccnc(NS(=O)(=O)C5CC5)n4)CCCC3)nc2)n1` [P136, 1-(2-(cyclopropanesulfonamido)pyrimidin-4-yl)-N-(5-(6-ethoxypyrazin-2-yl)pyridin-2-yl)cyclopentane-1-carboxamide], the “Selectivity (fold selectivity between CTPS1 and CTPS2)” value in the assay on human CTPS1 [2] was “+++ (>60 fold (+++))”. Still for that read-out and setting: next, `CC(C)Oc1cncc(-c2ccc(NC(=O)Cc3ccnc(NS(=O)(=O)C4CC4)n3)c(F)c2)n1` [P12, 2-(2-(cyclopropanesulfonamido)pyrimidin-4-yl)-N-(2-fluoro-4-(6-isopropoxypyrazin-2-yl)phenyl)acetamide]: “++ (>30-60 fold (++))”; `CC(C)(C(=O)Nc1ccc(-c2cncc(C3CC3)n2)cn1)c1ccnc(NS(=O)(=O)C2CC2)n1` [P125, 2-(2-(cyclopropanesulfonamido)pyrimidin-4-yl)-N-(5-(6-cyclopropylpyrazin-2-yl)pyridin-2-yl)-2-methylpropanamide]: “++ (>30-60 fold (++))”.

For `CCOc1cncc(-c2ccc(NC(=O)C3(c4ccnc(NS(=O)(=O)C5CC5)n4)CCCC3)cc2)n1` [P2, 1-(2-(Cyclopropanesulfonamido)pyrimidin-4-yl)-N-(4-(6-ethoxypyrazin-2-yl)phenyl)cyclopentanecarboxamide], the “Selectivity (fold selectivity between CTPS1 and CTPS2)” value with human CTPS1 [2] is on record as “+++ (>60 fold (+++))”.
